Molecular target: T1, MrBBS (Matricaria chamomilla, UniProt A0A0A0RIB3)
T1 construct: pCold TF (trigger factor) fusion, E. coli BL21(DE3) pLysS; assayed as crude enzyme
T1 sequence (A0A0A0RIB3 1-572): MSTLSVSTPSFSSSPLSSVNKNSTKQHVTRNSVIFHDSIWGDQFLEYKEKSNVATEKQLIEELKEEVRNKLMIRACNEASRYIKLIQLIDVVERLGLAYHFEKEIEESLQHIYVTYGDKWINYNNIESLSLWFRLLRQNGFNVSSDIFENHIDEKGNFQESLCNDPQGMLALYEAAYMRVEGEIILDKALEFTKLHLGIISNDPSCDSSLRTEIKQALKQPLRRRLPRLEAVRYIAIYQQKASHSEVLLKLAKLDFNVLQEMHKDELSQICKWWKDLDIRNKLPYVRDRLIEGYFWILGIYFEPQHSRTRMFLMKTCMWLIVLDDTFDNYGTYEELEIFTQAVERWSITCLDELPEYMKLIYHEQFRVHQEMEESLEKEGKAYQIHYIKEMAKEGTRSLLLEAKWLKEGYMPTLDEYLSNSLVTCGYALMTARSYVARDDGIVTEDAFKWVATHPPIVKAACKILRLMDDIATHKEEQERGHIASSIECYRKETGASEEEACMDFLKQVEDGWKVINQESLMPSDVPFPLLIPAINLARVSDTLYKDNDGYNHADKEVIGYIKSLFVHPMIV
Test: GC-MS of hexane-extracted products
Format: biochemical
Details: 100 µM FPP; 50 mM Tris-HCl pH 7.5; 10 mM MgCl2; 20 µg crude enzyme; product alpha-bisabolol

CC(C)=CCC/C(C)=C/CC/C(C)=C/COP(=O)(O)OP(=O)(O)O [FPP]
GC-MS of hexane-extracted products: MrBBS catalyzed the conversion of FPP into α-bisabolol

From PMC9864331, “Biosynthesis of α-Bisabolol by Farnesyl Diphosphate Synthase and α-Bisabolol Synthase and Their Related Transcription Factors in Matricaria recutita L” (International Journal of Molecular Sciences, 2023)
